Assay results published in PMC9413440, “An Iterative Approach Guides Discovery of the FabI Inhibitor Fabimycin, a Late-Stage Antibiotic Candidate with In Vivo Efficacy against Drug-Resistant Gram-Negative Infections” (ACS Central Science, 2022).
≈ marks a conversion by molar mass, not a printed value.

Tests used:
A. baumannii AR-0033 = assay: MIC, broth microdilution (CLSI); type: cell-based; settings: Acinetobacter baumannii, AR0033; A. baumannii AR-0033 clinical isolate; † = dose-independent trailing growth
Description: (§1) II. Materials and Methods for Biological Experiments
(§2) S. aureus ATCC 29213 and E. coli MG1655 were obtained from the American Type Culture Collection (ATCC). E. coli BW25113 and E. coli JW5503 were obtained from the Keio Collection. AR-bank strains were obtained from the Centers for Disease Control and Prevention and FDA Antibiotic Resistance Isolate Bank.
(§3) Antimicrobial susceptibility tests
(§4) Susceptibility testing was performed in biological triplicate, unless noted otherwise, using the micro-dilution broth method as outlined by the Clinical and Laboratory Standards Institute. Bacteria were cultured with cation-adjusted Mueller Hinton broth (Sigma Aldrich, catalogue number: 90922). […]
(§5) NH3: m/z 391.2 → 171.0. Fabimycin: m/z 405.3 → 145.3. Power analysis was not used to determine the number of replicates. Error bars represent the standard error of the mean of three biological replicates. All compounds evaluated in biological assays were ≥95% pure.

A. baumannii AR-0273 = assay: MIC, broth microdilution (CLSI); type: cell-based; settings: Acinetobacter baumannii, AR0273; A. baumannii AR-0273 clinical isolate
Description: as §1, §2, §3, §4, §5

A. baumannii AR-0299 = assay: MIC, broth microdilution (CLSI); type: cell-based; settings: Acinetobacter baumannii, AR0299; A. baumannii AR-0299 clinical isolate; † = dose-independent trailing growth
Description: as §1, §2, §3, §4, §5

E. coli AR-0048 = assay: MIC, broth microdilution (CLSI); type: cell-based; settings: Escherichia coli, AR0048; E. coli AR-0048 clinical isolate
Description: as §1, §2, §3, §4, §5

E. coli AR-0085 = assay: MIC, broth microdilution (CLSI); type: cell-based; settings: Escherichia coli, AR0085; E. coli AR-0085 clinical isolate
Description: as §1, §2, §3, §4, §5

E. coli MG1655 = assay: MIC, broth microdilution (CLSI); type: cell-based; settings: Escherichia coli
Description: as §1, §2, §3, §4, §5

K. pneumoniae AR-0066 = assay: MIC, broth microdilution (CLSI); type: cell-based; settings: Klebsiella pneumoniae, AR0066; K. pneumoniae AR-0066 clinical isolate
Description: as §1, §2, §3, §4, §5

K. pneumoniae AR-0560 = assay: MIC, broth microdilution (CLSI); type: cell-based; settings: Klebsiella pneumoniae, AR0560; K. pneumoniae AR-0560 clinical isolate
Description: as §1, §2, §3, §4, §5

K. pneumoniae BAA-2472 = assay: MIC, broth microdilution (CLSI); type: cell-based; settings: Klebsiella pneumoniae, BAA2472
Description: as §1, §2, §3, §4, §5

S. aureus ATCC 29213 = assay: MIC, broth microdilution (CLSI); type: cell-based; settings: Staphylococcus aureus, ATCC29213; S. aureus 29213
Description: as §1, §2, §3, §4, §5

E. coli ΔtolC (JW5503) = assay: MIC, broth microdilution (CLSI); type: cell-based, Escherichia coli; settings: Escherichia coli
Description: as §1, §2, §3, §4, §5

A. baumannii AR-0313 = assay: MIC, broth microdilution (CLSI); type: cell-based; settings: Acinetobacter baumannii, AR0313; A. baumannii AR-0313 clinical isolate; † = dose-independent trailing growth
Description: as §1, §2, §3, §4
(§6) Error bars represent the standard error of the mean of three biological replicates. All compounds evaluated in biological assays were ≥95% pure.

K. pneumoniae AR-0113 = assay: MIC, broth microdilution (CLSI); type: cell-based; settings: Klebsiella pneumoniae, AR0113; K. pneumoniae AR-0113 clinical isolate
Description: as §1, §2, §3, §4, §6

[1] = system: panel of 10 clinical isolates (two E. coli, four K. pneumoniae, four A. baumannii); assay: MIC, Gram-negative clinical isolate challenge panel; type: cell-based; settings: 10 clinical isolates; read-out: MIC, all strains of the clinical isolate challenge panel

| Compound | MIC (A. baumannii AR-0033) [µg/mL] | MIC (A. baumannii AR-0273) [µg/mL] | MIC (A. baumannii AR-0299) [µg/mL] | MIC (E. coli AR-0048) [µg/mL] | MIC (E. coli AR-0085) [µg/mL] | MIC (E. coli MG1655) [µg/mL] | MIC (K. pneumoniae AR-0066) [µg/mL] | MIC (K. pneumoniae AR-0560) [µg/mL] | MIC (K. pneumoniae BAA-2472) [µg/mL] | MIC (S. aureus ATCC 29213) [µg/mL] | MIC (E. coli ΔtolC (JW5503)) [µg/mL] | MIC (A. baumannii AR-0313) [µg/mL] | MIC (K. pneumoniae AR-0113) [µg/mL] | MIC [1] [µg/mL] |
| --- | --- | --- | --- | --- | --- | --- | --- | --- | --- | --- | --- | --- | --- | --- |
| Cc1c(CN(C)C(=O)/C=C/c2cnc3c(c2)CC2(CC(N)C2)C(=O)N3)oc2ccccc12 (racemic) [(±)-3] | 16 (≈ 37.2 µM) | 16 (≈ 37.2 µM) | 16 (≈ 37.2 µM) | 16 (≈ 37.2 µM) | 16 (≈ 37.2 µM) | 4 (≈ 9.29 µM) | 8 (≈ 18.6 µM) | 8 (≈ 18.6 µM) | 8 (≈ 18.6 µM) | 0.016 (≈ 0.0372 µM) | 0.062 (≈ 0.144 µM) | 32 (≈ 74.3 µM) | 16 (≈ 37.2 µM) | – |
| Cc1c(CN(C)C(=O)/C=C/c2cnc3c(c2)CC2(CC(CN)C2)C(=O)N3)oc2ccccc12 (racemic) [(±)-4] | – | – | – | – | – | 16 (≈ 36 µM) | – | – | – | 0.031 (≈ 0.0697 µM) | 0.125 (≈ 0.281 µM) | – | – | – |
| Cc1c(CN(C)C(=O)/C=C/c2cnc3c(c2)CC2(CCC(N)CC2)C(=O)N3)oc2ccccc12 (racemic) [(±)-5] | – | – | – | – | – | 16 (≈ 34.9 µM) | – | – | – | 0.016 (≈ 0.0349 µM) | 0.062 (≈ 0.135 µM) | – | – | – |
| Cc1c(CN(C)C(=O)/C=C/c2cnc3c(c2)CC2(CCC(CN)CC2)C(=O)N3)oc2ccccc12 (racemic) [(±)-6] | – | – | – | – | – | 16 (≈ 33.9 µM) | – | – | – | 0.031 (≈ 0.0656 µM) | 0.062 (≈ 0.131 µM) | – | – | – |
| Cc1c(CN(C)C(=O)/C=C/c2cnc3c(c2)CCC(N)C(=O)N3)oc2ccccc12 (racemic) [(±)-7] | 4 (≈ 9.89 µM) | 8 (≈ 19.8 µM) | 4 (≈ 9.89 µM) | 4 (≈ 9.89 µM) | 4 (≈ 9.89 µM) | 4 (≈ 9.89 µM) | 8 (≈ 19.8 µM) | 8 (≈ 19.8 µM) | 8 (≈ 19.8 µM) | 0.016 (≈ 0.0396 µM) | 0.031 (≈ 0.0766 µM) | 8 (≈ 19.8 µM) | 8 (≈ 19.8 µM) | ≤ 8 |
| Cc1c(CN(C)C(=O)/C=C/c2cnc3c(c2)CCC(CN)C(=O)N3)oc2ccccc12 (racemic) [(±)-8] | 16 (≈ 38.2 µM) | 32 (≈ 76.5 µM) | 32 (≈ 76.5 µM) | 16 (≈ 38.2 µM) | 8 (≈ 19.1 µM) | 8 (≈ 19.1 µM) | 32 (≈ 76.5 µM) | 16 (≈ 38.2 µM) | 32 (≈ 76.5 µM) | 0.031 (≈ 0.0741 µM) | 0.125 (≈ 0.299 µM) | > 32 | 32 (≈ 76.5 µM) | – |
